Laboratory results: patent US20260159500A1, “KINESIN KIF18A INHIBITOR AND USE THEREOF” (SHANGHAI APEIRON THERAPEUTICS COMPANY LIMITED, priority 2022, published 2026)

Columns and labels:
HT29 cells = test: CyQuant cell proliferation activity test in HT29 cells; assay type: cell-based; details: Homo sapiens, HT-29, 72 h, 2000 cells per well, 3 days incubation, IC50 by XLFIT, read-out: HT29_IC50_nM
Procedure: HT29 cells were purchased from Nanjing Cobioer Biosciences Co., Ltd.; RPMI-1640 medium, fetal bovine serum, Trypsin-EDTA (0.25%), 96-well plates, and CyQuant reagents were purchased from ThermoFisher (USA); DMSO was purchased from SIGMA (USA).
Culture HT29 cells with RPMI-1640 containing 10% fetal bovine serum under the condition of 37° C. and 5% CO2. Only cells in the logarithmic growth phase can be used for the test.
Use the CyQuant reagent to detect the proliferation inhibitory activity of compounds on HT29 cells. Adjust the cell density and inoculate 100 μL per well into the 96-well plate (HT29 at 2000 cells per well), then incubate overnight under the condition of 37° C. and 5% CO2. Add compounds of various target concentrations (initial concentration of 3000 nM, 3-fold dilution, 9 concentration gradients), and make the DMSO content 0.2%. Incubate the cell plates at 37° C. and 5% CO2 for 3 days. Incubate with CyQuant reagent for 1 h, read the plate by Envision, and calculate IC50 using XLFIT.

OVCAR3 cells = test: Cell proliferation activity test in OVCAR3 cells (CyQUANT Direct); assay type: cell-based; details: Homo sapiens, OVCAR-3, 72 h, 3 days incubation, CyQUANT fluorescence detection, read-out: OVCAR-3_IC50_nM
Procedure: OVCAR3 cells were purchased from Nanjing Cobioer Biosciences Co., Ltd. RPMI-1640 medium, fetal bovine serum, and the CyQUANT Direct Cell Proliferation Assay kit were purchased from Thermo Fisher Scientific, USA; 96-well cell culture plates were sourced from Corning, USA.
Culture OVCAR3 cells with RPMI-1640 medium containing 10% fetal bovine serum and incubate them in a 5% CO2 incubator at 37° C. Only cells in the logarithmic growth phase can be used for the test.
Inoculate OVCAR3 cells into a 96-well cell culture plate at 90 μL per well and incubate overnight in a 5% CO2 incubator at 37° C. Dissolve the compound powder in DMSO to prepare a stock solution of 10 mM. Then perform gradient dilution for the compounds in the microplate to achieve a final concentration of 0-10 μM. Add 10 μL of cell culture medium containing compounds to each well to make the final DMSO content 0.2%. Incubate the cell plates in a 5% CO2 incubator at 37° C. for 3 days. Add 100 μL of CyQUANT detection reagent to each well, react at 37° C. for 60 min, and perform fluorescence detection using the PerkinElmer Envision.

[1] = target: T1, Human KIF18A (amino acid sequence 1-417) (Homo sapiens, UniProt Q8NI77); test: Enzymatic activity test (ADP-Glo, microtubule-stimulated KIF18A ATPase); assay type: biochemical; details: 60 μg/mL microtubules, 25 μM ATP, 2.5 nM KIF18A protein, 120 min at ambient temperature, read-out: KIF18A_nM
T1 construct: purchased Viva Biotech (Shanghai) Ltd
T1 sequence (Q8NI77 1-417): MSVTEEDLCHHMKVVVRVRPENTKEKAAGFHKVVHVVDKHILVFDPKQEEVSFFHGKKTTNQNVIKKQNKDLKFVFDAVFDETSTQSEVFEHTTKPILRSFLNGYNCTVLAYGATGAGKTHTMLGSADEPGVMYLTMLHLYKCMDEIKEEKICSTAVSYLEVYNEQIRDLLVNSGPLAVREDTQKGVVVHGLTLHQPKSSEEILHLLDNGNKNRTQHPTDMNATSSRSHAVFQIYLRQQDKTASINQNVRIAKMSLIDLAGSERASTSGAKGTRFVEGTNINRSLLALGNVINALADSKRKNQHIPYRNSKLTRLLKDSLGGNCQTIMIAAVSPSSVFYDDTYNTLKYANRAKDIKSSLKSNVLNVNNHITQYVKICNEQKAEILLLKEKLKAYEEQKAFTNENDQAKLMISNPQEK
Procedure: Human KIF18A (amino acid sequence 1-417) was purchased from Viva Biotech (Shanghai) Ltd.; the ADP-Glo™ protein kinase kit was acquired from Promega, USA; tubulin was sourced from Cytoskeleton, USA; and the 384-well assay plate and Envision multifunctional microplate reader were obtained from PerkinElmer, USA.
Dissolve the compound powder in DMSO to prepare a stock solution of 10 mM. Then perform gradient dilution for the compounds in the microplate to achieve a final concentration of 0-10 μM. Then, add 2.5 μL each of tubulin, compound, ATP, and KIF18A protein to the microplate in sequence for reaction at ambient temperature for 120 min. The final concentrations in the enzyme reaction are 60 μg/mL for microtubules, 25 μM for ATP, and 2.5 nM for KIF18A protein. After the enzyme reaction, add 10 μL of ADP-GLO reaction reagent to each well and incubate at ambient temperature for 30 min. After that, add 20 μL of detection reagent to each well and incubate at ambient temperature for 30 min in the dark. Finally, perform chemiluminescence detection using the PerkinElmer Envision.

| Structure (SMILES) | IC50 (HT29 cells) | IC50 (OVCAR3 cells) | IC50 [1] |
| --- | --- | --- | --- |
| C[C@@H](CO)S(=O)(=O)Nc1ccc(C(=O)Nc2cc3cccnc3c(N3CCC(F)(F)CC3)c2F)c(N2CCC3(CC2)CC3)c1 [Example 99, 2-{6-azaspiro[2.5]octan-6-yl}-N-[8-(4,4-difluoropiperidin-1-yl)-7-fluoroquinolin-6-yl]-4-[(2S)-1-hydroxypropane-2-sulfonamido]benzamide] | 22 nM | 17 nM | 174 nM |
| O=C(Nc1cc2nccnc2c(N2CCC(F)(F)CC2)n1)c1ccc(NS(=O)(=O)CCO)cc1N1CCC2(CC1)CC2 [Example 59] | 22 nM | 14 nM | 38 nM |
| CN1CCN(c2nc(NC(=O)c3ccc(NS(=O)(=O)CCO)cc3N3CCC4(CC3)CC4)cc3cccnc23)CC1 [Example 48] | 360 nM | 236 nM | 108 nM |
| Cn1ncc2c(N3CCC(F)(F)CC3)nc(NC(=O)c3ccc(NS(=O)(=O)CCO)cc3N3CCC4(CC3)CC4)cc21 [Example 36] | 62 nM | 64 nM | 39 nM |
| O=C(Nc1cc2cccnc2c(N2CCC(F)(F)CC2)c1Cl)c1ccc(NS(=O)(=O)CCO)cc1N1CCC2(CC1)CC2 [Example 73, N-(7-chloro-8-(4,4-difluoropiperidin-1-yl)quinolin-6-yl)-4-((2-hydroxyethyl)sulfonamido)-2-(6-azaspiro[2.5]oct-6-yl)benzamide] | 1410 nM | 1030 nM | > 3000 nM |
| O=C(Nc1cn2ncnc2c(N2CCC(F)(F)CC2)n1)c1ccc(NS(=O)(=O)CCO)cc1N1CCC2(CC1)CC2 [Example 16] | 56 nM | 33 nM | 29 nM |
| O=C(Nc1cc2nsnc2c(N2CCC(F)(F)CC2)n1)c1ccc(NS(=O)(=O)CCO)cc1N1CCC2(CC1)CC2 [Example 39] | 18 nM | 15 nM | 38 nM |
| O=C(Nc1cc2c(c(N3CCC(F)(F)CC3)n1)COC2)c1ccc(NS(=O)(=O)CCO)cc1N1CCC2(CC1)CC2 [Example 5, N-(4-(4,4-difluoropiperidin-1-yl)-1,3-dihydrofuro[3,4-c]pyridin-6-yl)-4-(2-hydroxyethylsulfonamido)-2-(6-azaspiro[2.5]octan-6-yl)benzamide] | 7 nM | 6 nM | 28 nM |
| Nc1ccc2cc(NC(=O)c3ccc(NS(=O)(=O)CCO)cc3N3CCC4(CC3)CC4)c(F)c(N3CCC(F)(F)CC3)c2n1 [Example 78, N-(2-amino-8-(4,4-difluoropiperidin-1-yl)-7-fluoroquinolin-6-yl)-4-((2-hydroxyethyl)sulfonamido)-2-(6-azaspiro[2.5]octan-6-yl)benzamide] | 11 nM | 12 nM | 193 nM |
| O=C(Nc1cn2nccc2c(N2CCC(F)(F)CC2)n1)c1ccc(NS(=O)(=O)CCO)cc1N1CCC2(CC1)CC2 [Example 17] | 30 nM | 20 nM | 28 nM |
| Nc1nc2c(N3CCC(F)(F)CC3)c(F)c(NC(=O)c3ccc(NS(=O)(=O)CCO)cc3N3CCC4(CC3)CC4)cc2s1 [Example 42, N-[2-amino-4-(4,4-difluoropiperidin-1-yl)-5-fluoro-1,3-benzothiazol-6-yl]-2-{6-azaspiro[2.5]octan-6-yl}-4-(2-hydroxyethanesulfonamido)benzamide] | 17 nM | 7 nM | 213 nM |
| CNc1ccc2cc(NC(=O)c3ccc(NS(=O)(=O)CCO)cc3N3CCC4(CC3)CC4)c(F)c(N3CCC(F)(F)CC3)c2n1 [Example 79, N-(8-(4,4-difluoropiperidin-1-yl)-7-fluoro-2-(methylamino)quinolin-6-yl)-4-((2-hydroxyethyl)sulfonamido)-2-(6-azaspiro[2.5]oct-6-yl)benzamide] | 55 nM | 47 nM | 943 nM |
| O=C(O)c1cnc2c(N3CCC(F)(F)CC3)cc(NC(=O)c3ccc(NS(=O)(=O)CCO)cc3N3CCC4(CC3)CC4)cc2c1 [Example 87, 6-(2-{6-azaspiro[2.5]octan-6-yl}-4-(2-hydroxyethanesulfonamido)benzoylamino)-8-(4,4-difluoropiperidin-1-yl)quinoline-3-carboxylic acid] | > 3000 nM | > 3000 nM | 10 nM |
| Nc1cc2cc(NC(=O)c3ccc(NS(=O)(=O)CCO)cc3N3CCC4(CC3)CC4)nc(N3CCC(F)(F)CC3)c2nn1 [Example 62, N-[3-amino-8-(4,4-difluoropiperidin-1-yl)pyrido[3,4-c]pyridazin-6-yl]-2-{6-azaspiro[2.5]octan-6-yl}-4-(2-hydroxyethanesulfonamido)benzamide] | 12 nM | 13 nM | 28 nM |
| O=C(Nc1cc2cccnc2c(N2CCN(CC(F)(F)F)CC2)n1)c1ccc(NS(=O)(=O)CCO)cc1N1CCC2(CC1)CC2 [Example 49, 4-(2-hydroxyethylsulfonamido)-2-(6-azaspiro[2.5]octan-6-yl)-N-(8-(4-(2,2,2-trifluoroethyl)piperazin-1-yl)-1,7-naphthyridin-6-yl)benzamide] | 1430 nM | 1340 nM | 1220 nM |
| O=C(Nc1nc(N2CCC(F)(F)CC2)c2occc2n1)c1ccc(NS(=O)(=O)CCO)cc1N1CCC2(CC1)CC2 [Example 32, N-(4-(4,4-difluoropiperidin-1-yl)furo[3,2-d]pyrimidin-2-yl)-4-((2-hydroxyethyl)sulfanilamide)-2-(6-azaspiro[2.5]octan-6-yl)benzamide] | 927 nM | 347 nM | 8 nM |
| O=C(Nc1cc(N2CCC(F)(F)CC2)c2ncnn2c1)c1ccc(NS(=O)(=O)CCO)cc1N1CCC2(CC1)CC2 [Example 18] | 35 nM | 16 nM | 12 nM |
| O=C(Nc1cc(N2CCC(F)(F)CC2)c2cnccc2c1)c1ccc(NS(=O)(=O)CCO)cc1N1CCC2(CC1)CC2 [Example 81, N-(8-(4,4-difluoropiperidin-1-yl)isoquinolin-6-yl)-4-(2-hydroxyethylsulfonamido)-2-(6-azaspiro[2.5]octan-6-yl)benzamide] | 8 nM | 18 nM | 35 nM |
| CC1OCc2c1cc(NC(=O)c1ccc(NS(=O)(=O)CCO)cc1N1CCC3(CC1)CC3)nc2N1CCC(F)(F)CC1 (stereo not drawn) [Example 9, N-(4-(4,4-difluoropiperidin-1-yl)-1-methyl-1,3-dihydrofuro[3,4-c]pyridin-6-yl)-4-((2-hydroxyethyl)sulfonamido)-2-(6-azaspiro[2.5]octan-6-yl)benzamide] | 37 nM | 55 nM | 49 nM |
| Cn1cnc2cc(NC(=O)c3ccc(NS(=O)(=O)CCO)cc3N3CCC4(CC3)CC4)nc(N3CCC(F)(F)CC3)c21 [Example 34] | 446 nM | 166 nM | 63 nM |
| COc1ccc2cc(NC(=O)c3ccc(NS(=O)(=O)CCO)cc3N3CCC4(CC3)CC4)nc(N3CCC(F)(F)CC3)c2n1 [Example 52, N-(8-(4,4-difluoropiperidin-1-yl)-2-methoxy-1,7-naphthyridin-6-yl)-4-(2-hydroxyethylsulfonamido)-2-(6-azaspiro[2.5]octan-6-yl)benzamide] | 92 nM | 83 nM | 149 nM |
